According to patent publication US7202239B2, “Cyclohexylphenyl carboxamides tocolytic oxytocin receptor antagonists” (Wyeth, priority 2001, dated 2007):

Target: human vasopressin V1a receptor subtype (Homo sapiens, UniProt P37288)
Test: Vasopressin binding in CHO cell membranes expressing human vasopressin V1a subtype receptors
Settings: 100 nM, [3H]Manning ligand
Text: Vasopressin Binding in Chinese Hamster Ovary Cell Membranes Expressing Human Vasopressin V1a Subtype Receptors
Chinese hamster ovary cells (CHO cells) stably transfected with the human vasopressin V1a subtype receptors were either obtained from Biosignal Inc., 1744 rue Williams, Montreal, Quebec, Canada or obtained from M. Thibonnier, Case Western Reserve University School of Medicine, Cleveland, Ohio. A. Passaging and Amplification of Cells: CHO cells transfected with the human vasopressin V1a subtype receptors obtained from M. Thibonnier (pZeoSV vector) are allowed to grow to confluency (approx. >90%) in T-150 flasks under sterile conditions, in a cell culture medium of F-12 Nutrient Mixture (HAM) with L-glutamine (Gibco Cat. # 11765-054) containing 15 mM HEPES (Gibco Cat. 15630-080), 1% antibiotic/antimycotic (add 5 mL 100×, Gibco Cat. 15240-062 per 500 mL F-12), 250 μg/mL Zeocin (add 1.25 mL of 100 mg/mL Invitrogen R-250-01 per 500 mL F-12) and 10% Fetal Bovine Serum (Qualified, heat inactivated, Gibco Cat. # 16140-063). The medium is removed by aspiration and the cells are washed with 10 mL of Hank's Balanced Salt solution (Gibco Cat. # 14175-095). The salt solution is removed by aspiration and the cells are trypsinized with 5 mL of trypsin-EDTA (0.05% trypsin, 0.53 mM EDTA-4Na, Gibco Cat. # 25300-070) for 1 min. The trypsin is removed by aspiration and the cells dislodged by tapping. Cell Culture medium (eg, 30 mL for 1:30 split) is immediately added and mixed well to inactivate trypsin. 1 mL of detached cells is added to new culture flasks containing fresh cell culture medium (eg, into 25 mL per T-150 flask), and mixed gently. The cells are incubated at 37° C. in 5% CO2. The medium is changed at 3 to 4 days interval (or as appropriate). The cells grow to confluency (approx. >75%–95%) within 7–8 days. All steps are done under sterile conditions. B. Membrane Preparation: The cells are washed twice gently with Hank's Balanced Salt solution (e.g,. use 10 mL per T-150 flask). The excess is removed and the cells are bathed for 15–30 min. in an enzyme-free Cell Dissociation Buffer (e.g. use 8 mL Hank's Based, Gibco Cat. # 13150-016 per T-150 flask) until the cells are loosened. The contents are transferred to centrifuge tubes (50 mL) kept in an ice bath. All subsequent steps are done at 4° C. The tubes are centrifuged at 300×g for 15 min (1380 rpm on SORVAL, Model RT6000D, using rotor for the 50 mL tubes). The supernatant is discarded and the cells suspended in homogeneizing buffer(10 mM Tris-HCl containing 0.25 M sucrose and 1 mM EDTA, pH 7.4) ensuring that the volume of the buffer is about ten times the volume of the cell pellet. The cells are pooled into a centrifuge tube (50 mL) and homogenized with Polytron at setting 6 for 10 sec. The homogenate is transferred into a Potter-Elvjehm homogenizer and homogenized with 3 strokes. The homogenate is centrifuged at 1500× g for 10 min at 4° C. (3100 rpm using SORVAL, model RT6000D, using the rotor for 50 mL tubes). The pellet is discarded. The supernatant is centrifuged at 100,000×g for 60 min. at 4° C. (Beckman L8-80M ultracentrifuge; spin at 37,500 rpm with rotor type 70 Ti for 50 mL tubes; 38,000 rpm with type 80Ti for 15 mL tubes; or 35,800 rpm with rotor type 45Ti). The supernantant is discarded and the pellet suspended in 3 to 4 mL of Tris buffer (50 mM TRIS-HCl, pH 7.4). The protein content is estimated by the Bradford or Lowry method. The volume of the membrane suspension is adjusted with the membrane buffer (50 mM Tris-HCl containing 0.1% BSA and 0.1 mM PMSF) to give 3.0 mg/mL (or as appropriate) of protein. The membranes are aliquoted and stored at −70° C. C. […]

Chain of human vasopressin V1a receptor subtype (P37288 whole entry): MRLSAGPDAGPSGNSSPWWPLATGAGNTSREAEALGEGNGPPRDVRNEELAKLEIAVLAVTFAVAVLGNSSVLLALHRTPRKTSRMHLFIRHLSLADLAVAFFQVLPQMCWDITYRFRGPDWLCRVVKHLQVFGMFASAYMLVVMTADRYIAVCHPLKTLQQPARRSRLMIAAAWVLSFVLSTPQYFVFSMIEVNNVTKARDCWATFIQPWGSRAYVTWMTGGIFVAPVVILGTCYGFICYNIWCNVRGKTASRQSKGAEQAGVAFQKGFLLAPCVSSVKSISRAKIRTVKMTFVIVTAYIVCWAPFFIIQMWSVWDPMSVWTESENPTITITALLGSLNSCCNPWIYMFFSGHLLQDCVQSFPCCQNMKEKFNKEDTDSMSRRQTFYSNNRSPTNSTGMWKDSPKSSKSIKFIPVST

| inhibition at 0.1 µM [%] | V1a % inhibition at 100 nM [%] | SMILES |
| --- | --- | --- |
| -7 |  | COC(=O)c1ccc2c(c1)N(C(=O)c1ccc(C3CCCCC3)cc1)Cc1ccc(C(=O)N3CCN(C)CC3)n1C2.Cl [Example 1, Methyl 10-(4-cyclohexylbenzoyl)-3-[(4-methyl-1-piperazinyl)carbonyl]-10,11-dihydro-5H-pyrrolo[2,1-c][1,4]benzodiazepine-8-carboxylate hydrochloride salt] |
| -19 |  | CN1CCN(C(=O)c2ccc3n2Cc2ccc(C(=O)O)cc2N(C(=O)c2ccc(C4CCCCC4)cc2)C3)CC1 [Example 3, 10-(4-Cyclohexyl-benzoyl)-3-[(4-methyl-1-piperazinyl)carbonyl]-10,11-dihydro-5H-pyrrolo[2,1-c][1,4]benzodiazepine-8-carboxylic acid] |
| 3 |  | CC(C)(C)c1ccc(C(=O)c2ccc3n2Cc2ccccc2N(C(=O)c2ccc(C4CCCCC4)cc2)C3)cc1 [Example 5, [4-(tert-Butyl)phenyl][10-(4-cyclohexyl-benzoyl)-10,11-dihydro-5H-pyrrolo[2,1-c][1,4]benzodiazepin-3-yl]methanone] |
| 22 |  | CN1CCC(N(C)C(=O)c2ccc3n2Cc2ccccc2N(C(=O)c2ccc(C4CCCCC4)cc2)C3)C1 (stereo not drawn) [Example 40, 10-(4-Cyclohexyl-benzoyl)-N-methyl-N-(1-methyl-3-pyrrolidinyl)-10,11-dihydro-5H-pyrrolo[2,1-c][1,4]benzodiazepine-3-carboxamide] |
| 14 |  | CN(C)CCN1CCN(C(=O)c2ccc3n2Cc2ccccc2N(C(=O)c2ccc(C4CCCCC4)cc2)C3)CC1 [Example 41, [10-(4-Cyclohexyl-benzoyl)-10,11-dihydro-5H-pyrrolo[2,1-c][1,4]benzodiazepin-3-yl]{4-[2-(dimethylamino)ethyl]-1-piperazinyl}methanone] |
| 28 |  | O=C(c1ccc2n1Cc1ccccc1N(C(=O)c1ccc(C3CCCCC3)cc1)C2)N1CCN(CCN2CCOCC2)CC1 [Example 42, [10(4-Cyclohexyl-benzoyl)-10,11-dihydro-5H-pyrrolo[2,1-c][1,4]benzodiazepin-3-yl]{4-[2-(4-morpholinyl)ethyl]-1-piperazinyl}methanone] |
| 1 |  | C=CCN1CCN(C(=O)c2ccc3n2Cc2ccccc2N(C(=O)c2ccc(C4CCCCC4)cc2)C3)CC1 [Example 43, (4-Allyl-1-piperazinyl)[10-(4-cyclohexyl-benzoyl)-10,11-dihydro-5H-pyrrolo[2,1-c][1,4]benzodiazepin-3-yl]methanone] |
| 1 |  | CC(C)N1CCN(C(=O)c2ccc3n2Cc2ccccc2N(C(=O)c2ccc(C4CCCCC4)cc2)C3)CC1 [Example 44, [10-(4-Cyclohexyl-benzoyl)-10,11-dihydro-5H-pyrrolo[2,1-c][1,4]benzodiazepin-3-yl](4-isopropyl-1-piperazinyl)methanone] |
| 31 |  | CN(C)CCCN1CCN(C(=O)c2ccc3n2Cc2ccccc2N(C(=O)c2ccc(C4CCCCC4)cc2)C3)CC1 [Example 45, [10-(4-Cyclohexyl-benzoyl)-10,11-dihydro-5H-pyrrolo[2,1-c][1,4]benzodiazepin-3-yl]{4-[3-(dimethylamino)propyl]-1-piperazinyl}methanone] |
|  | 21 | O=C(c1ccc(C2CCCCC2)cc1)N1Cc2ccc(C(=O)N3CCC[C@H]3CN3CCCC3)n2Cc2ccccc21 [Example 46, [10-(4-Cyclohexyl-benzoyl)-10,11-dihydro-5H-pyrrolo[2,1-c][1.4]benzodiazepin-3-yl][(2S)-2-(1-pyrrolidinylmethyl)pyrrolidinyl]methanone] |
|  | 28 | CN(C)[C@@H]1CCN(C(=O)c2ccc3n2Cc2ccccc2N(C(=O)c2ccc(C4CCCCC4)cc2)C3)C1 [Example 47, [10-(4-Cyclohexyl-benzoyl)-10,11-dihydro-5H-pyrrolo[2,1-C][1,4]benzodiazepin-3-yl][(3R)-3-(dimethylamino)pyrrolidinyl]methanone] |
|  | 35 | O=C(c1ccc2n1Cc1ccccc1N(C(=O)c1ccc(C3CCCCC3)cc1)C2)N1CCN(CCO)CC1 [Example 48, [10-(4-Cyclohexyl-benzoyl)-10,11-dihydro-5H-pyrrolo[2,1-c][1,4]benzodiazepin-3-y][4-(2-hydroxyethyl)-1-piperazinyl]methanone] |
| 0 |  | O=C(NCCc1ccccn1)c1ccc2n1Cc1ccccc1N(C(=O)c1ccc(C3CCCCC3)cc1)C2 [Example 49, 10-(4-Cyclohexyl-benzoyl)-N-[2-(2-pyridinyl)ethyl]-10,11-dihydro-5H-pyrrolo[2,1-c][1,4]benzodiazepine-3-carboxamide] |
| 3 |  | O=C(NCc1ccccn1)c1ccc2n1Cc1ccccc1N(C(=O)c1ccc(C3CCCCC3)cc1)C2 [Example 50, 10-(4-Cyclohexyl-benzoyl)-N-(2-pyridinylmethyl)-10,11-dihydro-5H-pyrrolo[2,1-c][1,4]benzodiazepine-3-carboxamide] |
| -1 |  | O=C(NCc1cccnc1)c1ccc2n1Cc1ccccc1N(C(=O)c1ccc(C3CCCCC3)cc1)C2 [Example 51, 10-(4-Cyclohexyl-benzoyl)-N-(3-pyridinylmethyl)-10,11-dihydro-5H-pyrrolo [2,1-c][1,4]benzodiazepine-3-carboxamide] |
| 19 |  | CN(CCc1ccccn1)C(=O)c1ccc2n1Cc1ccccc1N(C(=O)c1ccc(C3CCCCC3)cc1)C2 [Example 52, 10-(4-Cyclohexyl-benzoyl)-N-methyl-N-[2-(2-pyridinyl)-ethyl]-10,11-dihydro-5H-pyrrolo[2,1-c][1,4]benzodiazepine-3-carboxamide] |
| 20 |  | O=C(NCc1ccncc1)c1ccc2n1Cc1ccccc1N(C(=O)c1ccc(C3CCCCC3)cc1)C2 [Example 53, 10-(4-Cyclohexyl-benzoyl)-N-(4-pyridinylmethyl)-10,11-dihydro-5H-pyrrolo[2,1-c][1,4]benzodiazepine-3-carboxamide] |
|  | 0 | O=C(c1ccc2n1Cc1ccccc1N(C(=O)c1ccc(C3CCCCC3)cc1)C2)N1CCN(c2ccncc2)CC1 [Example 54, [10-(4-Cyclohexyl-benzoyl)-10,11-dihydro-5H-pyrrolo[2,1-c][1,4]benzpdiazepin-3-yl][4-(4-pyridinyl)-1-piperazinyl]-methanone] |
| 50 |  | CN(CCc1ccncc1)C(=O)c1ccc2n1Cc1ccccc1N(C(=O)c1ccc(C3CCCCC3)cc1)C2 [Example 55, 10-(4-Cyclohexyl-benzoyl)-N-methyl-N-[2(4-pyridinyl)ethyl]-10,11-dihydro-5H-pyrrolo[2,1-c][1,4]benzodiazepine-3-carboxamide] |
| 16 |  | O=C(c1ccc(C2CCCCC2)cc1)N1Cc2ccc(C(=O)n3ccnc3)n2Cc2ccccc21 [Example 56, 1H-Imidazol-1-yl-[10-(4-cyclohexyl-benzoyl)-10,11-dihydro-5H-pyrrolo[2,1-c][1,4]benzodiazepin-3-yl]-methanone] |
| -5 |  | CN(Cc1cccnc1)C(=O)c1ccc2n1Cc1ccccc1N(C(=O)c1ccc(C3CCCCC3)cc1)C2 [Example 57, 10-(4-Cyclohexyl-benzoyl)-N-methyl-N-(3-pyridinylmethyl)-10,11-dihydro-5H-pyrrolo[2,1-c][1,4]benzodiazepine-3-carboxamide] |

Tested on: not given
Test: not given
Settings: not given

| melting point | SMILES |
| --- | --- |
| 203 °C (dec.) | COC(=O)c1ccc2c(c1)N(C(=O)c1ccc(C3CCCCC3)cc1)Cc1ccc(C(=O)N3CCN(C)CC3)n1C2.Cl [Example 1, Methyl 10-(4-cyclohexylbenzoyl)-3-[(4-methyl-1-piperazinyl)carbonyl]-10,11-dihydro-5H-pyrrolo[2,1-c][1,4]benzodiazepine-8-carboxylate hydrochloride salt] |
| 195 to 210 °C | CN1CCN(C(=O)c2ccc3n2Cc2ccc(C(=O)O)cc2N(C(=O)c2ccc(C4CCCCC4)cc2)C3)CC1 [Example 3, 10-(4-Cyclohexyl-benzoyl)-3-[(4-methyl-1-piperazinyl)carbonyl]-10,11-dihydro-5H-pyrrolo[2,1-c][1,4]benzodiazepine-8-carboxylic acid] |
| 143 to 145 °C | CC(C)(C)c1ccc(C(=O)c2ccc3n2Cc2ccccc2N(C(=O)c2ccc(C4CCCCC4)cc2)C3)cc1 [Example 5, [4-(tert-Butyl)phenyl][10-(4-cyclohexyl-benzoyl)-10,11-dihydro-5H-pyrrolo[2,1-c][1,4]benzodiazepin-3-yl]methanone] |
